# Measurements from patent US11311462B2, “Adhesive monomers for dental materials” (Mitsui Chemicals, Inc., priority 2017, dated 2022).
# Test: Three-point bending test of cured product
# Format: physicochemical
# Conditions: Table 2; composition: compound 1.80 g, UDMA 2.5 g, TEGDMA 0.74 g, plus 0.5 parts by weight TPO; cured product stored in deionized water at 37° C. 24 hours
# Method: The composition prepared as described above was packed in a 2×2×25 mm SUS mold, covered with a cover film, and then irradiated with light from a dental visible light irradiator (α Light V, manufactured by J. Morita Tokyo MFG. Corp.) for 3 minutes on each side, namely, for a total of 6 minutes on both sides to cure the composition. The cured product was stored in deionized water at 37° C. for 24 hours, and then subjected to a three-point bending test with a general-purpose tester (Precise Versatile Material Tester 210X, manufactured by INTESCO Co., Ltd.) under conditions in which the distance between supports was 20 mm and the cross head speed was 1.0 mm/min. The results of the bending test of the cured products of the compositions to be used as the dental materials are shown in Table 2.
Cured product bending test result Elastic modulus,Cured product bending test result Maximum stress,Structure (SMILES)
1.7 GPa,85 MPa,"C=C(C)C(=O)OCCCCCCCCCCOP(=O)(O)O [MDP, 10-methacryloyloxydecyl dihydrogen phosphate, reference compound]"
2.3 GPa,102 MPa,C=C(C)C(=O)OCCNC(=O)OCC(COC(=O)NCCOC(=O)C(=C)C)OP(=O)(O)O [Compound 2]
2.0 GPa,89 MPa,C=C(C)C(=O)OCCOCCNC(=O)OCC(COC(=O)NCCOCCOC(=O)C(=C)C)OP(=O)(O)O [Compound 6]
2.4 GPa,102 MPa,C=C(C)C(=O)OCCNC(=O)OCC(COCC(COC(=O)NCCOC(=O)C(=C)C)OP(=O)(O)O)OC(=O)NCCOC(=O)C(=C)C (stereo not drawn) [Compound 4]

# Same assay, conditions: Table 3; composition: compound 60, UDMA 30, TEGDMA 10 parts by weight, plus 0.5 parts TPO
Cured product bending test result Elastic modulus,Cured product bending test result Maximum stress,Structure (SMILES)
0.32 GPa,22 MPa,"C=C(C)C(=O)OCCCCCCCCCCOP(=O)(O)O [MDP, 10-methacryloyloxydecyl dihydrogen phosphate, reference compound]"
2.2 GPa,92 MPa,C=C(C)C(=O)OCCNC(=O)OCC(COC(=O)NCCOC(=O)C(=C)C)OP(=O)(O)O [Compound 2]
1.3 GPa,66 MPa,C=C(C)C(=O)OCCOCCNC(=O)OCC(COC(=O)NCCOCCOC(=O)C(=C)C)OP(=O)(O)O [Compound 6]
2.3 GPa,88 MPa,C=C(C)C(=O)OCCNC(=O)OCC(COCC(COC(=O)NCCOC(=O)C(=C)C)OP(=O)(O)O)OC(=O)NCCOC(=O)C(=C)C (stereo not drawn) [Compound 4]

# Same assay, conditions: Table 5; filled pasty composition in parts by weight: compound 8.0, UDMA 20, TEGDMA 10, 4-META 2.0, CQ 0.2, 2-butoxyethyl 4-(dimethylamino)benzoate 0.4, glass filler 59
row,Structure (SMILES),Cured product bending test result Elastic modulus
1,"C=C(C)C(=O)OCCCCCCCCCCOP(=O)(O)O [MDP, 10-methacryloyloxydecyl dihydrogen phosphate, reference compound]",5.7 GPa
2,C=C(C)C(=O)OCCNC(=O)OCC(COC(=O)NCCOC(=O)C(=C)C)OP(=O)(O)O [Compound 2],6.5 GPa
